PubChem BioAssay AID1259407 (Chemical Carcinogenesis Research Information System (CCRIS), 2018)
Calls of active or inactive are those of the source. No rule for the calls is given here.

System: CCRIS mutagenicity, Ames/micronucleus/aberration tests
Test: CCRIS mutagenicity studies
[1] = Test System: AMES SALMONELLA TYPHIMURIUM, Strain/Indicator: TA98, Metabolic Activation: NONE, Method: PREINCUBATION
[2] = Test System: AMES SALMONELLA TYPHIMURIUM, Strain/Indicator: TA100, Metabolic Activation: NONE, Method: PREINCUBATION
[3] = Test System: AMES SALMONELLA TYPHIMURIUM, Strain/Indicator: TA98, Metabolic Activation: NONE, Method: STANDARD PLATE
[4] = Test System: AMES SALMONELLA TYPHIMURIUM, Strain/Indicator: TA100, Metabolic Activation: NONE, Method: STANDARD PLATE

`CC(C)(C)c1cc(/C=C/c2cc(C(C)(C)C)c(O)c(C(C)(C)C)c2)cc(C(C)(C)C)c1O` was tested, and the mutagenic call [1] was “inactive; negative”, the mutagenic call (Test System: AMES SALMONELLA TYPHIMURIUM, Strain/Indicator: TA98, Metabolic Activation: RAT, LIVER, S-9, Method: PREINCUBATION) was “inactive; negative” and the mutagenic call [2] was “inactive; negative”. For the same molecule, the mutagenic call (Test System: AMES SALMONELLA TYPHIMURIUM, Strain/Indicator: TA100, Metabolic Activation: RAT, LIVER, S-9, Method: PREINCUBATION) was “inactive; negative”.
For `CCN(CC)CCCN`, the mutagenic call [1] was “inactive; negative”, the mutagenic call (Test System: AMES SALMONELLA TYPHIMURIUM, Strain/Indicator: TA98, Metabolic Activation: RAT, LIVER, S-9, PCB, Method: PREINCUBATION) was “inactive; negative” and the mutagenic call [2] was “inactive; negative”. For the same molecule, the mutagenic call (Test System: AMES SALMONELLA TYPHIMURIUM, Strain/Indicator: TA100, Metabolic Activation: RAT, LIVER, S-9, PCB, Method: PREINCUBATION) was “inactive; negative”.
`Cc1ccc(/C=C/c2ccc(N)cc2)cc1` was tested, and the mutagenic call (Test System: AMES SALMONELLA TYPHIMURIUM, Strain/Indicator: TA98(1,8-DNP6), Metabolic Activation: NONE, Method: STANDARD PLATE) was “inactive; negative”, the mutagenic call (Test System: AMES SALMONELLA TYPHIMURIUM, Strain/Indicator: TA98(1,8-DNP6), Metabolic Activation: S-9, Method: STANDARD PLATE) was “active; positive” and the mutagenic call [3] was “inactive; negative”. For the same molecule, the mutagenic call (Test System: AMES SALMONELLA TYPHIMURIUM, Strain/Indicator: TA98, Metabolic Activation: RAT LIVER S9, AROCHLOR, Method: STANDARD PLATE) was “active; positive”, the mutagenic call (Test System: AMES SALMONELLA TYPHIMURIUM, Strain/Indicator: TA98, Metabolic Activation: S-9, Method: STANDARD PLATE) was “active; positive” and the mutagenic call [4] was “inactive; negative”. The mutagenic call (Test System: AMES SALMONELLA TYPHIMURIUM, Strain/Indicator: TA100, Metabolic Activation: RAT, LIVER, S9, AROCLOR, Method: STANDARD PLATE) was “active; positive” and the mutagenic call (Test System: AMES SALMONELLA TYPHIMURIUM, Strain/Indicator: TA100, Metabolic Activation: S-9, Method: STANDARD PLATE) was “active; positive”.
`Sc1ccccc1` was tested, and the mutagenic call [1] was “inactive; negative”, the mutagenic call (Test System: AMES SALMONELLA TYPHIMURIUM, Strain/Indicator: TA98, Metabolic Activation: RAT LIVER S-9, PHENOBARBITAL AND BETA-NAPHTHOFLAVONE, Method: PREINCUBATION) was “inactive; negative” and the mutagenic call [2] was “inactive; negative”. For the same molecule, the mutagenic call (Test System: AMES SALMONELLA TYPHIMURIUM, Strain/Indicator: TA100, Metabolic Activation: RAT LIVER S-9, PHENOBARBITAL AND BETA-NAPHTHOFLAVONE, Method: PREINCUBATION) was “inactive; negative”, the mutagenic call (Test System: AMES SALMONELLA TYPHIMURIUM, Strain/Indicator: TA1535, Metabolic Activation: NONE, Method: PREINCUBATION) was “inactive; negative” and the mutagenic call (Test System: AMES SALMONELLA TYPHIMURIUM, Strain/Indicator: TA1535, Metabolic Activation: RAT LIVER S-9, PHENOBARBITAL AND BETA-NAPHTHOFLAVONE, Method: PREINCUBATION) was “inactive; negative”. For the same molecule, the mutagenic call (Test System: AMES SALMONELLA TYPHIMURIUM, Strain/Indicator: TA1537, Metabolic Activation: NONE, Method: PREINCUBATION) was “inactive; negative”, the mutagenic call (Test System: AMES SALMONELLA TYPHIMURIUM, Strain/Indicator: TA1537, Metabolic Activation: RAT LIVER S-9, PHENOBARBITAL AND BETA-NAPHTHOFLAVONE, Method: PREINCUBATION) was “inactive; negative” and the mutagenic call (Test System: AMES SALMONELLA TYPHIMURIUM, Strain/Indicator: TA1538, Metabolic Activation: NONE, Method: PREINCUBATION) was “inactive; negative”. For the same molecule, the mutagenic call (Test System: AMES SALMONELLA TYPHIMURIUM, Strain/Indicator: TA1538, Metabolic Activation: RAT LIVER S-9, PHENOBARBITAL AND BETA-NAPHTHOFLAVONE, Method: PREINCUBATION) was “inactive; negative”, the mutagenic call (Test System: E.COLI, Strain/Indicator: WP2UVRA, Metabolic Activation: NONE, Method: PREINCUBATION) was “active; positive” and the mutagenic call (Test System: E.COLI, Strain/Indicator: WP2UVRA, Metabolic Activation: RAT LIVER S-9, PHENOBARBITAL AND BETA-NAPHTHOFLAVONE, Method: PREINCUBATION) was “inactive; negative”.
In the case of `OCC(CO)NC1CC(O)(CO)C(O)C(O)C1O` (stereo not given), the mutagenic call (Test System: AMES SALMONELLA TYPHIMURIUM, Strain/Indicator: TA98, Metabolic Activation: NONE) was “inactive; negative”, the mutagenic call (Test System: AMES SALMONELLA TYPHIMURIUM, Strain/Indicator: TA98, Metabolic Activation: RAT, LIVER, S-9, SODIUM PHENOBARBITAL AND 5,6-BENZOFLAVONE) was “inactive; negative” and the mutagenic call (Test System: AMES SALMONELLA TYPHIMURIUM, Strain/Indicator: TA100, Metabolic Activation: NONE) was “inactive; negative”. The mutagenic call (Test System: AMES SALMONELLA TYPHIMURIUM, Strain/Indicator: TA100, Metabolic Activation: RAT, LIVER, S-9, SODIUM PHENOBARBITAL AND 5,6-BENZOFLAVONE) was “inactive; negative”, the mutagenic call (Test System: AMES SALMONELLA TYPHIMURIUM, Strain/Indicator: TA1535, Metabolic Activation: NONE) was “inactive; negative” and the mutagenic call (Test System: AMES SALMONELLA TYPHIMURIUM, Strain/Indicator: TA1535, Metabolic Activation: RAT, LIVER, S-9, SODIUM PHENOBARBITAL AND 5,6-BENZOFLAVONE) was “inactive; negative”. The mutagenic call (Test System: AMES SALMONELLA TYPHIMURIUM, Strain/Indicator: TA1537, Metabolic Activation: NONE) was “inactive; negative”, the mutagenic call (Test System: AMES SALMONELLA TYPHIMURIUM, Strain/Indicator: TA1537, Metabolic Activation: RAT, LIVER, S-9, SODIUM PHENOBARBITAL AND 5,6-BENZOFLAVONE) was “inactive; negative” and the mutagenic call (Test System: E. COLI, Strain/Indicator: WP2 UVRA, Metabolic Activation: NONE) was “inactive; negative”. For the same molecule, the mutagenic call (Test System: E. COLI, Strain/Indicator: WP2 UVRA, Metabolic Activation: RAT, LIVER, S-9, SODIUM PHENOBARBITAL AND 5,6-BENZOFLAVONE) was “inactive; negative”.
`C=C(C)C(=O)OCCOC1C=CC2C3CCC(C3)C12` (stereo not given) was tested, and the mutagenic call (Test System: CHINESE HAMSTER OVARY, Strain/Indicator: CHO-K1-BH4 (HGPRT), Metabolic Activation: NONE, Method: MONOLAYER) was “inactive; negative” and the mutagenic call (Test System: CHINESE HAMSTER OVARY, Strain/Indicator: CHO-K1-BH4 (HGPRT), Metabolic Activation: NONE, Method: SUSPENSION/PLATE) was “active; positive”.
For `CN1COCN(Cc2cnc(Cl)s2)/C1=N/[N+](=O)[O-]`, the mutagenic call (End Point: IN VIVO MICRONUCLEUS, Test System: BONE MARROW POLYCHROMATIC ERYTHROCYTES, Species: RAT, Strain/Sex: WISTAR/FEMALE, Route: ORAL (GAVAGE)) was “active; positive” and the mutagenic call (End Point: IN VIVO MICRONUCLEUS, Test System: POLYCHROMATIC ERYTHROCYTES FROM COLONIC CRYPT EPITHELIAL CELLS, Species: RAT, Strain/Sex: WISTAR/FEMALE, Route: ORAL (GAVAGE)) was “active; positive”.
With `CC(C)c1cccc(C(C)C)c1O` the mutagenic call (End Point: IN VIVO CHROMOSOMAL ABERRATIONS, Test System: PERIPHERAL BLOOD LYMPHOCYTES, Species: HUMAN, Strain/Sex: MALE, FEMALE, Route: IV) was “inactive; negative”.
With `CCN(CC)CCNC(=O)c1ccc(N)cc1` the mutagenic call (Test System: CHINESE HAMSTER V-79, Strain/Indicator: V-79 (HGPRT)/6-THIOGUANINE, Metabolic Activation: NONE) was “inactive; negative”, the mutagenic call (Test System: UDS HUMAN HEPATOCYTES, Strain/Indicator: THY INCORP, Metabolic Activation: NONE, Method: AUTORADIOGRAPHY) was “inactive; negative” and the mutagenic call (Test System: UDS RAT HEPATOCYTES, Strain/Indicator: THY INCORP, Metabolic Activation: NONE, Method: AUTORADIOGRAPHY) was “inactive; negative”.
For `O=[N+]([O-])c1cccc2c1[nH]c1ccccc12`, the mutagenic call [3] was “active; positive”, the mutagenic call (Test System: AMES SALMONELLA TYPHIMURIUM, Strain/Indicator: TA98, Metabolic Activation: RAT, LIVER, S-9, AROCLOR 1254, Method: STANDARD PLATE) was “active; positive” and the mutagenic call (Test System: AMES SALMONELLA TYPHIMURIUM, Strain/Indicator: TA98, Metabolic Activation: RAT, LIVER, S-9, PHENOBARBITAL, Method: STANDARD PLATE) was “active; positive”. The mutagenic call [4] was “inactive; negative”, the mutagenic call (Test System: AMES SALMONELLA TYPHIMURIUM, Strain/Indicator: TA100, Metabolic Activation: RAT, LIVER, S-9, PHENOBARBITAL, Method: STANDARD PLATE) was “inactive; negative” and the mutagenic call (Test System: AMES SALMONELLA TYPHIMURIUM, Strain/Indicator: TA1538, Metabolic Activation: NONE, Method: STANDARD PLATE) was “active; positive”. For the same molecule, the mutagenic call (Test System: AMES SALMONELLA TYPHIMURIUM, Strain/Indicator: TA1538, Metabolic Activation: RAT, LIVER, S-9, PHENOBARBITAL, Method: STANDARD PLATE) was “active; positive”, the mutagenic call (Test System: AMES SALMONELLA TYPHIMURIUM, Strain/Indicator: TA1977, Metabolic Activation: NONE, Method: STANDARD PLATE) was “inactive; negative” and the mutagenic call (Test System: AMES SALMONELLA TYPHIMURIUM, Strain/Indicator: TA1977, Metabolic Activation: RAT, LIVER, S-9, PHENOBARBITAL, Method: STANDARD PLATE) was “inactive; negative”.
